1 compound from patent publication US12187703B2, “Crystalline forms of N-(3-(2-(2-hydroxyethoxy)-6-morpholinopyridin-4-yl)-4-methvlphenyl)-2 (trifluoromethyl)isonicotinamide as Raf inhibitors for the treatment of cancer” (NOVARTIS AG, priority 2019, dated 2025) can be followed below.

This data set can be described thus: Humidity exposure of amorphous form. It counts as physicochemical. The following applies: ambient humidity or 92% RH.

Consider `Cc1ccc(NC(=O)c2ccnc(C(F)(F)F)c2)cc1-c1cc(OCCO)nc(N2CCOCC2)c1` [amorphous form, N-(3-(2-(2-hydroxyethoxy)-6-morpholinopyridin-4-yl)-4-methylphenyl)-2-(trifluoromethyl)isonicotinamide], for which the “Physical form stability under humidity” value was “remains stable and does not convert to HA”.
